In brackets after ≈: the same amount, converted by molar mass.
Key:
[1] = test system: BALB/c 3T3 cells; experiment: In vitro 3T3 NRU phototoxicity assay OECD 432; type: cell-based, mouse; conditions: for IC50: Mus musculus, BALB/c3T3, light or radiation study
Description: (§1) The phototoxicity assay used 3T3 cells as test system. The aim of this study was to obtain the Photo-Irritation Factor (PIF) for the postbiotic composition of the invention. 3T3 cells were treated with the postbiotic composition of the invention at eight different concentrations for 1 hour. Thereafter, half of the samples were exposed to simulated solar irradiation, whereas the other half was kept in the dark. Cell viability was calculated after 24 hours of incubation by means of the neutral red assay. The following reagents were used for these assays. Table 3 Table 3 Reagents used in this example
(§2) Balb/c 3T3 cells were used as a test system. Once thawed, cells were grown as a monolayer in DMEM culture medium supplemented with 10% Newborn Calf Serum (NCBS) and antibiotics (100 U/mL penicillin and 100 µg/mL streptomycin). The cells were incubated under standard culture conditions (37°C ± 2°C and 5% CO2/air), changing the medium every 2-3 days and sub-cultivating before reaching 80% confluency. According to the guideline, the 3T3 cells used in this study were tested for mycoplasma and only mycoplasma-free cells were used throughout the study.
(§3) To prepare the system, after thawing, cells were propagated from stock cultures and grown in culture medium for two weeks. For each assay, when cell density reached 80% confluence, they were trypsinized and counted using trypan blue strain. The day before the exposition to the postbiotic composition of the invention, the cells were tripsinized and counted. A suspension of 100,000 cells/mL was prepared and 200 µL of the suspension were added to each well in 96-well plates (20,000 cells/well), except in the peripheral wells.
(§4) According to the OECD Guideline for testing of chemicals: In Vitro 3T3 NRU phototoxicity test, protocol No 432 (2019), the maximum concentration to be analyzed is 1 mg/mL. As the cytotoxicity assay exposed the cells to the composition for 24 hours, and the phototoxicity assay includes an exposition of 1 hour, it was decided to perform the phototoxicity test starting from 1 mg/mL. From this concentration, eight concentrations were prepared in 1/3 dilutions. This solution was prepared in Hank's with Ca2+ and Mg2+ and HEPES. (C1) 1 mg/mL; (C2) 0.33 mg/mL; (C3) 0.11 mg/mL; (C4) 0.037 mg/mL; (C5) 0.0123 mg/mL; (C6) 0.0041 mg/mL; (C7) 0.00137 mg/mL; and (C8) 0.000457 mg/mL SDS was used as a positive control, 8 concentrations were prepared 400 µg/mL; 200 µg/mL; 100 µg/mL; 50 µg/mL; 25 µg/mL; 12.5 µg/mL; 6.25 µg/mL; and 3.125 µg/mL
(§5) As the exposition time involved in the phototoxicity test was shorter, it was decided to start this assay from highest concentration allowed: 1 mg/mL. Seven more concentrations were prepared in 1/3 dilutions. 3T3 cells were seeded at 20,000 cells/well in 96-well plates. Cells were exposed to the eight concentrations of the postbiotic composition of the invention defined above for 1 hour at 37°C and 5% CO2. Two 96-well plates were prepared for the postbiotic composition of the invention, the postbiotic composition and reference control (CPZ). One plate of each condition (+IRR) was irradiated for 52 minutes at 5 J/cm^2 while the other plates (- IRR) were kept in the dark for the same amount of time. Then, culture media was removed, cells were washed with Hank's without phenol red and 100 µL of neutral red were added to each well. Cells were incubated for 3 hours at 37°C and 5% CO2 and then were washed again. Finally, the neutral red was solubilized by adding 100 µL to each well of a solution of Acetic acid/Ethanol. Plates were incubated 10 minutes at room temperature and absorbance at 540 nm was measured.
(§6) Once obtained the cytotoxic results, the phototoxicity assay for the postbiotic composition of the invention was performed using 1 mg/mL as the highest dose. […] Therefore, it was decided to use the highest concentration allowed according to OECD 432 guideline. In total, 8 concentrations were prepared as disclosed in the material and methods section above. […]

[2] = In vitro 3T3 NRU phototoxicity assay OECD 432; type: cell-based, mouse; conditions: mouse, reference item; for viability at 1 h, 200 µg/mL: C1 = 200 µg/mL; for viability at 1 h, 66.67 µg/mL: C2 = 66.67 µg/mL; for viability at 1 h, 22.22 µg/mL: C3 = 22.22 µg/mL; for viability at 1 h, 7.407 µg/mL: C4 = 7.407 µg/mL; for viability at 1 h, 2.47 µg/mL: C5 = 2.47 µg/mL; for viability at 1 h, 0.823 µg/mL: C6 = 0.823 µg/mL; for viability at 1 h, 0.274 µg/mL: C7 = 0.274 µg/mL; for viability at 1 h, 0.091 µg/mL: C8 = 0.091 µg/mL
Description: as §1, §2, §3, §4, §5, §6

[3] = test system: 3T3 cells; experiment: Dose range finding (cytotoxicity assay, MTT); type: cell-based, mouse; conditions: 3T3, 24h
Description: - Prior to the phototoxicity assay, solubility of the composition was determined, it was decided to start from 20 mg/mL in culture media. Starting from this concentration, a dose range finding experiment (cytotoxicity assay) was performed. Starting from 20 mg/mL in culture media, eight concentrations were prepared in 1/10 dilutions: 20 mg/mL; 2 mg/mL; 0.2 mg/mL; 0.02 mg/mL; 0.002 mg/mL; 0.0002 mg/mL; 0.00002 mg/mL; and 0.000002 mg/mL
Starting from the limit of solubility obtained (20 mg/mL) a dose range finding experiment was set up in order to determine the IC50 value (if obtained). 3T3 cells were seeded at 10,000 cells/well in 96-well plates. Seven more concentrations were prepared following a 1/10 dilution factor. Cells were exposed to the postbiotic composition of the invention for 24h. SDS was used as positive control and viability was determined by means of MTT method.
To establish the concentrations to be tested in the phototoxicity assay, it was decided to check the postbiotic composition of the invention in a dose range finding assay using SDS as a positive control. Starting from 20 mg/mL dissolved in culture media it was decided to prepare the concentrations disclosed above in the materials and methods section. Using the Graphpad Prism 8 statistical software, we calculated the IC50 values by means of a 4-parameter logistic curve (4PL). This equation uses log(dose) values.

[4] = in vitro; conditions: human

CN(C)CCCN1c2ccccc2Sc2ccc(Cl)cc21 [CPZ, Chlorpromazine]
IC50 ([1]; irradiated plates): 0.974 µg/mL (≈ 3.05 µM) | IC50 ([1]; non-irradiated plates): 31.4 µg/mL (≈ 98.5 µM) | MPE (∑i = 1^n wi PEci)/(∑i = 1^n wi) ([1]; mouse, 1 h): 0.401 | PIF (IC50(−Irr))/(IC50(+Irr)) ([1]; mouse, 1 h): 32.303 | viability at 1 h, 200 µg/mL ([2]; +IRR (5 J/cm^2)): 2.57% | viability at 1 h, 66.67 µg/mL ([2]; +IRR (5 J/cm^2)): 0.32% | viability at 1 h, 22.22 µg/mL ([2]; +IRR (5 J/cm^2)): 1.62% | viability at 1 h, 7.407 µg/mL ([2]; +IRR (5 J/cm^2)): 1.75% | viability at 1 h, 2.47 µg/mL ([2]; +IRR (5 J/cm^2)): 1.31% | viability at 1 h, 0.823 µg/mL ([2]; +IRR (5 J/cm^2)): 83.4% | viability at 1 h, 0.274 µg/mL ([2]; +IRR (5 J/cm^2)): 104% | viability at 1 h, 0.091 µg/mL ([2]; +IRR (5 J/cm^2)): 103% | viability at 1 h, 200 µg/mL ([2]; -IRR): 0.41% | viability at 1 h, 66.67 µg/mL ([2]; -IRR): 0.01% | viability at 1 h, 22.22 µg/mL ([2]; -IRR): 97.8% | viability at 1 h, 7.407 µg/mL ([2]; -IRR): 104% | viability at 1 h, 2.47 µg/mL ([2]; -IRR): 105% | viability at 1 h, 0.823 µg/mL ([2]; -IRR): 105% | viability at 1 h, 0.274 µg/mL ([2]; -IRR): 104% | viability at 1 h, 0.091 µg/mL ([2]; -IRR): 102%

CCCCCCCCCCCCOS(=O)(=O)[O-].[Na+] [SDS, Sodium dodecyl sulphate]
positive control result in dose range finding [3]: within the known range | viability [4]: 2%

From patent publication EP4501339A1, “POSTBIOTIC COMPOSITION FOR SKIN DISORDERS AND COSMETIC USE” (Igen Biolab Group AG, priority 2023, dated 2025)
